According to PubChem BioAssay (NCI):
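48-hour exposure; five concentrations; linearly interpolated endpoints. At the TGI there is no net growth.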

Key:
Assay in all cases: NCI-60 cell line screen, 48 h
CAKI-1 renal = tested on: CAKI-1 renal
SK-MEL-28 melanoma = tested on: SK-MEL-28 melanoma
KM20L2 colon = tested on: KM20L2 colon
HOP-18 NSCLC = tested on: HOP-18 NSCLC
SN12C renal = tested on: SN12C renal
UO-31 renal = tested on: UO-31 renal
OVCAR-4 ovarian = tested on: OVCAR-4 ovarian
HCC-2998 colon = tested on: HCC-2998 colon
ACHN renal = tested on: ACHN renal
HCT-116 colon = tested on: HCT-116 colon
SW-620 colon = tested on: SW-620 colon
HL-60(TB) leukemia = tested on: HL-60(TB) leukemia
UACC-257 melanoma = tested on: UACC-257 melanoma
EKVX NSCLC = tested on: EKVX NSCLC
MOLT-4 leukemia = tested on: MOLT-4 leukemia
SR leukemia = tested on: SR leukemia
UACC-62 melanoma = tested on: UACC-62 melanoma
SK-MEL-2 melanoma = tested on: SK-MEL-2 melanoma
SNB-19 CNS = tested on: SNB-19 CNS
786-0 renal = tested on: 786-0 renal
HT29 colon = tested on: HT29 colon
SNB-75 CNS = tested on: SNB-75 CNS
DLD-1 colon = tested on: DLD-1 colon
A549 NSCLC = tested on: A549 NSCLC
U251 CNS = tested on: U251 CNS
SF-295 CNS = tested on: SF-295 CNS
MALME-3M melanoma = tested on: MALME-3M melanoma
HOP-92 NSCLC = tested on: HOP-92 NSCLC
KM12 colon = tested on: KM12 colon
M19-MEL melanoma = tested on: M19-MEL melanoma
OVCAR-8 ovarian = tested on: OVCAR-8 ovarian
LXFL 529 NSCLC = tested on: LXFL 529 NSCLC
NCI-H460 lung = tested on: NCI-H460 lung
SK-OV-3 ovarian = tested on: SK-OV-3 ovarian
SF-539 CNS = tested on: SF-539 CNS
NCI-H23 lung = tested on: NCI-H23 lung
NCI-H522 lung = tested on: NCI-H522 lung
K-562 leukemia = tested on: K-562 leukemia
CCRF-CEM leukemia = tested on: CCRF-CEM leukemia
TK-10 renal = tested on: TK-10 renal
HOP-62 NSCLC = tested on: HOP-62 NSCLC
HCT-15 colon = tested on: HCT-15 colon
NCI-H226 lung = tested on: NCI-H226 lung
LOX IMVI melanoma = tested on: LOX IMVI melanoma
SF-268 CNS = tested on: SF-268 CNS
A498 renal = tested on: A498 renal
RXF-631 renal = tested on: RXF-631 renal
M14 melanoma = tested on: M14 melanoma

Measured: TGI

CN/N=C(\C)c1c(O)cc(C)oc1=O
> 100 µM: all assays above
